According to patent US9211310B2, “Use of a Chinese medicine composition in preparing medicaments for treating secondary prevention of myocardial infarction” (TASLY PHARMACEUTICAL GROUP CO., LTD, priority 2010, dated 2015):

System: patients after acute myocardial infarction
Assay: TCM symptom score, total and single (chest pain, chest tightness, short breath, fatigue, palpitation, spontaneous perspiration, pale complexion), same clinical trial
Assay type: in vivo, human
Set-up: total score of TCM symptom, Mean / total score of TCM symptom, Min / total score of TCM symptom, Max / total score of TCM symptom, Md / change of total score of TCM symptom, Mean / change of total score of TCM symptom, Max / change of total score of TCM symptom, Md: scale not given here
Settings: PP
Text: 3508 patients who were in accordance with the diagnostic standards of AMI for 28 days to 2 years and differentiated as Qi deficiency and blood stagnation syndrome by TCM were studied. 0.5 g Chinese medicine composition prepared by the method of EXAMPLE 1 (Coded as QSYQ) was administrated half an hour after meal, 3 times per day.
They included the overall survival time, angina pectoris score, TCM symptom score and life quality score, where angina pectoris score, TCM symptom score and life quality score were evaluated at randomization, in 1st, 3rd, 6th, 9th, 12th month after treatment and 18th month after follow-up.
The analysis method referred to the angina pectoris score.

[1] = 3 months after treatment-baseline
[2] = 6 months after treatment-baseline

Q: What does the source list for `CC(=O)Oc1ccccc1C(=O)O` [Control group, aspirine]?
A: change of short breath 2, number of patients [1]: 309; change of short breath 4, % of patients [1]: (2.36%); change of short breath 4, number of patients [1]: 34; change of short breath 6, % of patients [1]: (0.55%); change of short breath 6, number of patients [1]: 8; change of short breath −2, % of patients [1]: (5.27%); change of short breath −2, number of patients [1]: 76; change of short breath −4, % of patients [1]: (0.14%); change of short breath −4, number of patients [1]: 2; change of short breath −6, % of patients [1]: (0.00%); change of short breath −6, number of patients [1]: 0; change of spontaneous perspiration 0, number of patients [1]: 898; change of spontaneous perspiration 0, percent of patients [1]: (62.23%); change of spontaneous perspiration 1, number of patients [1]: 342; change of spontaneous perspiration 1, percent of patients [1]: (23.70%); change of spontaneous perspiration 2, number of patients [1]: 71; change of spontaneous perspiration 2, percent of patients [1]: (4.92%); change of spontaneous perspiration 3, number of patients [1]: 16; change of spontaneous perspiration 3, percent of patients [1]: (1.11%); change of spontaneous perspiration −1, number of patients [1]: 101; change of spontaneous perspiration −1, percent of patients [1]: (7.00%); change of spontaneous perspiration −2, number of patients [1]: 13; change of spontaneous perspiration −2, percent of patients [1]: (0.90%); change of spontaneous perspiration −3, number of patients [1]: 2; change of spontaneous perspiration −3, percent of patients [1]: (0.14%); distribution of total score of TCM symptom: Medium, number of patients (6 months after treatment): 377; distribution of total score of TCM symptom: Medium, percentage of patients (6 months after treatment): (26.40%); distribution of total score of TCM symptom: Mild, number of patients (6 months after treatment): 1044; distribution of total score of TCM symptom: Mild, percentage of patients (6 months after treatment): (73.11%); distribution of total score of TCM symptom: Severe, number of patients (6 months after treatment): 7; distribution of total score of TCM symptom: Severe, percentage of patients (6 months after treatment): (0.49%); fatigue score 0, % of patients (6 months after treatment): (31.00%); fatigue score 0, number of patients (6 months after treatment): 443; fatigue score 2, % of patients (6 months after treatment): (61.65%); fatigue score 2, number of patients (6 months after treatment): 881; fatigue score 4, % of patients (6 months after treatment): (6.79%); fatigue score 4, number of patients (6 months after treatment): 97; fatigue score 6, % of patients (6 months after treatment): (0.56%); fatigue score 6, number of patients (6 months after treatment): 8; pale complexion score 0, number of patients (6 months after treatment): 750; pale complexion score 0, percent of patients (6 months after treatment): (52.48%); pale complexion score 1, number of patients (6 months after treatment): 540; pale complexion score 1, percent of patients (6 months after treatment): (37.79%); pale complexion score 2, number of patients (6 months after treatment): 133; pale complexion score 2, percent of patients (6 months after treatment): (9.31%); pale complexion score 3, number of patients (6 months after treatment): 6; pale complexion score 3, percent of patients (6 months after treatment): (0.42%); palpitation score 0, number of patients (6 months after treatment): 456; palpitation score 0, percent of patients (6 months after treatment): (31.91%); palpitation score 2, number of patients (6 months after treatment): 764; palpitation score 2, percent of patients (6 months after treatment): (53.46%); palpitation score 4, number of patients (6 months after treatment): 192; palpitation score 4, percent of patients (6 months after treatment): (13.44%); palpitation score 6, number of patients (6 months after treatment): 17; palpitation score 6, percent of patients (6 months after treatment): (1.19%); short breath score 0, % of patients (6 months after treatment): (25.21%); short breath score 0, number of patients (6 months after treatment): 360; short breath score 2, % of patients (6 months after treatment): (0.07%); short breath score 2, number of patients (6 months after treatment): 1; short breath score 3, % of patients (6 months after treatment): (58.68%); short breath score 3, number of patients (6 months after treatment): 838; short breath score 6, % of patients (6 months after treatment): (15.55%); short breath score 6, number of patients (6 months after treatment): 222; short breath score 9, % of patients (6 months after treatment): (0.49%); short breath score 9, number of patients (6 months after treatment): 7; spontaneous perspiration score 0, number of patients (6 months after treatment): 628; spontaneous perspiration score 0, percent of patients (6 months after treatment): (43.98%); spontaneous perspiration score 1, number of patients (6 months after treatment): 676; spontaneous perspiration score 1, percent of patients (6 months after treatment): (47.34%); spontaneous perspiration score 2, number of patients (6 months after treatment): 117; spontaneous perspiration score 2, percent of patients (6 months after treatment): (8.19%); spontaneous perspiration score 3, number of patients (6 months after treatment): 7; spontaneous perspiration score 3, percent of patients (6 months after treatment): (0.49%); total score of TCM symptom, Max (6 months after treatment): 34.00; total score of TCM symptom, Md (6 months after treatment): 9.00; total score of TCM symptom, Mean (6 months after treatment): 9.79; total score of TCM symptom, Min (6 months after treatment): 0.00; change of fatigue 0, % of patients [2]: (55.47%); change of fatigue 0, number of patients [2]: 791; change of fatigue 2, % of patients [2]: (30.01%); change of fatigue 2, number of patients [2]: 428; change of fatigue 4, % of patients [2]: (6.80%); change of fatigue 4, number of patients [2]: 97; change of fatigue 6, % of patients [2]: (1.12%); change of fatigue 6, number of patients [2]: 16; change of fatigue −2, % of patients [2]: (6.03%); change of fatigue −2, number of patients [2]: 86; change of fatigue −4, % of patients [2]: (0.56%); change of fatigue −4, number of patients [2]: 8; change of fatigue −6, % of patients [2]: (0.00%); change of fatigue −6, number of patients [2]: 0; change of pale complexion 0, number of patients [2]: 1104; change of pale complexion 0, percent of patients [2]: (77.47%); change of pale complexion 1, number of patients [2]: 272; change of pale complexion 1, percent of patients [2]: (19.09%); change of pale complexion −1, number of patients [2]: 49; change of pale complexion −1, percent of patients [2]: (3.44%); change of palpitation 0, number of patients [2]: 842; change of palpitation 0, percent of patients [2]: (59.09%); change of palpitation 1, number of patients [2]: 431; change of palpitation 1, percent of patients [2]: (30.25%); change of palpitation 2, number of patients [2]: 53; change of palpitation 2, percent of patients [2]: (3.72%); change of palpitation 3, number of patients [2]: 7; change of palpitation 3, percent of patients [2]: (0.49%); change of palpitation −1, number of patients [2]: 88; change of palpitation −1, percent of patients [2]: (6.18%); change of palpitation −2, number of patients [2]: 4; change of palpitation −2, percent of patients [2]: (0.28%); change of short breath 0, % of patients [2]: (63.53%); change of short breath 0, number of patients [2]: 906; change of short breath 2, % of patients [2]: (27.14%); change of short breath 2, number of patients [2]: 387; change of short breath 4, % of patients [2]: (3.16%); change of short breath 4, number of patients [2]: 45; change of short breath 6, % of patients [2]: (0.56%); change of short breath 6, number of patients [2]: 8; change of short breath −2, % of patients [2]: (5.33%); change of short breath −2, number of patients [2]: 76; change of short breath −4, % of patients [2]: (0.14%); change of short breath −4, number of patients [2]: 2; change of short breath −6, % of patients [2]: (0.14%); change of short breath −6, number of patients [2]: 2
